Experimental findings from patent publication US20190330192A1, “SUBSTITUTED AZOLYLPYRROLONES AND AZOLYLHYDANTOINS AND SALTS THEREOF AND USE THEREOF AS HERBICIDAL ACTIVE SUBSTANCES” (Bayer CropScience Aktiengesellschaft, priority 2016, published 2019) are described below.

The test deals with T1, photosystem II (PS II) (Spinacia oleracea, UniProt P69560).
T1 construct: the chloroplasts were osmotically ruptured and the thylakoid membranes were then obtained by centrifugation; from tissue; host or cells: fresh spinach leaves; thylakoid membranes from isolated chloroplasts
The test is described as follows: Measurement of the PS II activity in thylakoid membranes (DCPIP reduction). Format: biochemical. The note with it: test compound at 100 μM; spinach thylakoid membranes; DCPIP absorption at 595 nm over 10 min at 22° C. with exposure to light; read-out: Effect (inhibition of PS II activity). As to the method:
Cooled fresh spinach leaves were comminuted and homogenized in 50 mM phosphate buffer, pH 6.8. 10 mM KCl, 0.34 M sucrose (sucrose buffer) (blender, 1 g of plant material/ml). The homogenate was subsequently filtered through 4 layers of Miracloth and the chloroplasts were isolated by centrifugation, i.e. 10 min of centrifugation at 4400×g (4° C.). The sediment was suspended in 25 ml of sucrose buffer and re-centrifuged for 10 min at 4400×g (4° C.). The sediment was then suspended in 40 ml of 50 mM phosphate buffer, pH 6.8, 10 mM KCl, without sucrose. In this step, the chloroplasts were osmotically ruptured and the thylakoid membranes were then obtained by centrifugation (10 min, 4400×g, 4° C.). The membrane sediment was finally suspended in 20 ml of 50 mM phosphate buffer, pH 6.8, 10 mM KCl. […]
The electron transfer from PS II to an artificial electron acceptor, 2,6-dichlorophenolindophenol (DCPIP), was measured with exposure to light. The concentration of the blue oxidized form of DCPIP was determined spectrophotometrically at wavelength λ=595 nm. […]
Depending on the activity of the PS II preparation, the dilution was adjusted such that the measurement of the decrease in absorption (λ=595 nm) was linear for at least 10 min. […] On each microtiter plate, a known PS II inhibitor, for example metribuzin, was used as standard, which allowed the quality of the PS II test to be assessed. […]

The term inhibition denotes the share of the control response that was lost under treatment. Regarding `CCC(=O)OC1C(C)=C(Cl)C(=O)N1c1nc(SC)n(C)n1` (centres unmarked) [1.74-185, 4-Chloro-3-methyl-1-[1-methyl-5-(methylsulfanyl)-1H-1,2,4-triazol-3-yl]-5-oxo-2,5-dihydro-1H-pyrrol-2-ylpropionate], the inhibition at 100 µM (stock) lay in the range of 30 to 50%.
In the case of `CC1=C(Cl)C(=O)N(c2nnn(C)n2)C1O` (centres unmarked) [1.82-2, 3-Chloro-5-hydroxy-4-methyl-1-(1-methyl-1H-1,2,4,5-tetrazol-3-yl)-1,5-dihydro-2H-pyrrol-2-one], the inhibition at 100 µM was in the range of 50 to 70%.
